The results in this text go back to patent US20050209151A1, “Use of peptides” (priority 1999, published 2005).

Experiment [1] deals with β-endorphin concentration in blood. The experiment can be described thus: β-endorphin concentration in blood after intraventricular administration of PrRP-31. The experiment is classed as in vivo, Wistar rats. Particulars: PrRP-31 1, 3 or 10 nmol intraventricular. As for the experimental part: (§1) Adult male Wistar rats (body weight 350 to […] at surgery) were anesthetized with intraperitoneal administration of 50 mg/kg pentobarbital and immobilized in stereotaxic instruments. The incisor bar was set 3.3 mm below the interaural line. The skull was exposed, and a hole was drilled with a dental drill to implant a guide cannula AG-12 (inside diameter of 0.4 mm, outside diameter of 0.5 mm, by Eicom) in the third ventricle. Anchor screws were implanted in four surrounding locations. The tip of the stainless steel guide cannula AG-12 was inserted into position in the upper part of the third ventricle. The stereotaxic coordinates were AP: +7.1 mm, L: 0.0 mm, H: +2.0 mm, from the interaural line, according to the atlas of Paxinos and Watson (1986). The guide cannula was secured to the skull with instant adhesive, dental cement, and the anchor screws. A stainless-steel dummy cannula AD-12 (0.35 mm outside diameter, by Eicom) was then inserted into the guide cannula and secured with a cap nut (by Eicom). The rats were post-operatively housed in individual cages.
(§2) The animals were allowed to recover for about 1 week after the implantation of the guide cannulas, and blood samples were taken as they were allowed to move freely. The rats were then anesthetized with intraperitoneal administration of 50 mg/kg pentobarbital. […]

The subject of experiment [2] is ACTH concentration in blood. Briefly: ACTH concentration in blood after intraventricular administration of PrRP-31. The experiment is classed as in vivo, Wistar rats. The conditions noted are these: PrRP-31 1, 3 or 10 nmol intraventricular. As for the experimental part:
as §1, §2

Setting [3] is: plasma radioimmunoassay, 0-60 min.

Where no end group is shown, it is not given here.

As for “PrRP-31: amide form of the peptide consisting of the amino acid sequence in SEQ ID NO. 32 (SRTHRHSMEIRTPDINPAWYASRGIRPVGRF-NH2)”, the “time of peak β-endorphin concentration in blood after dosing” value in experiment [1] turned out to be 15 min. For the same substance, the “β-endorphin concentration in blood compared to the control group” value in experiment [1] (setting [3]) is recorded as “higher concentration-dependent increases”. Further, the “time of peak ACTH concentration in blood after dosing” value in experiment [2] was found to be 15 min. In experiment [2] (setting [3]), the “ACTH concentration in blood compared to the control group” value is listed as “higher concentration-dependent increases”.
